Assay results reported in patent US20100298141A1, “SUBSTITUTED PYRIDINE N-OXIDE HERBICIDES” (E. I. DU PONT DE NEMOURS AND COMPANY, priority 2007, published 2010).

Experiments:
barnyardgrass = experiment: Test A pre-/postemergence greenhouse test; format: in vivo, Echinochloa crus-galli; conditions: for Plant response rating, Barnyardgrass: 0 to 100 scale where 0 is no effect and 100 is complete control; for Barnyardgrass plant response rating: 0 to 100 scale
Outline: (§1)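 Untreated controls served as the reference for visual injury ratings taken about ten days after spraying. The non-phytotoxic solvent/surfactant formulation was applied preemergence to seeded loam and sand and postemergence to plants two to ten cm high.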

giant foxtail = experiment: Test A pre-/postemergence greenhouse test; format: in vivo, Setaria faberi; conditions: for Plant response rating, Foxtail, Giant: 0 to 100 scale where 0 is no effect and 100 is complete control; for Foxtail, Giant plant response rating: 0 to 100 scale
Outline: as §1

[1] = system: common (oilseed) sunflower; experiment: Test C pre-/postemergence test; format: in vivo, Helianthus annuus
Outline: (§2)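 Compounds in a non-phytotoxic solvent with surfactant applied preemergence to seeded pots and, at the same time, postemergence to plants 2–18 cm tall (1- to 4-leaf stage). Paddy tests: pots flooded to 3 cm, compound applied into the water, depth held throughout.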

redroot pigweed = experiment: Test A pre-/postemergence greenhouse test; format: in vivo, Amaranthus retroflexus; conditions: for Plant response rating, Pigweed: 0 to 100 scale where 0 is no effect and 100 is complete control; for Pigweed plant response rating: 0 to 100 scale
Outline: as §1

morningglory = experiment: Test A pre-/postemergence greenhouse test; format: in vivo, Ipomoea spp.; conditions: for Plant response rating, Morningglory: 0 to 100 scale where 0 is no effect and 100 is complete control; for Morningglory plant response rating: 0 to 100 scale
Outline: as §1

Goosegrass = experiment: Test C pre-/postemergence test; format: in vivo, Eleusin indica; conditions: for Plant response rating, Goosegrass: 31 g ai/ha, scale 0 to 100 (0 no effect, 100 complete control)
Outline: as §2

Surinam grass = experiment: Test C pre-/postemergence test; format: in vivo, Brachiaria decumbens; conditions: for Plant response rating, Surinam Grass: 31 g ai/ha, scale 0 to 100 (0 no effect, 100 complete control)
Outline: as §2

eastern black nightshade = experiment: Test C pre-/postemergence test; format: in vivo, Solanum ptycanthum
Outline: as §2

wheat [2] = experiment: Test C pre-/postemergence test; format: in vivo, Triticum aestivum; conditions: for Plant response rating, Wheat: 31 g ai/ha, scale 0 to 100 (0 no effect, 100 complete control)
Outline: as §2

pigweed = experiment: Test C pre-/postemergence test; format: in vivo, Amaranthus retroflexus; conditions: for Plant response rating, Pigweed: 31 g ai/ha, scale 0 to 100 (0 no effect, 100 complete control)
Outline: as §2

crabgrass = experiment: Test C pre-/postemergence test; format: in vivo, Digitaria sanguinalis; conditions: for Plant response rating, Crabgrass, Large: 31 g ai/ha, scale 0 to 100 (0 no effect, 100 complete control)
Outline: as §2

bermudagrass = experiment: Test C pre-/postemergence test; format: in vivo, Cynodon dactylon; conditions: for Plant response rating, Bermudagrass: 31 g ai/ha
Outline: as §2

wheat [3] = experiment: Test A pre-/postemergence greenhouse test; format: in vivo, Triticum aestivum; conditions: for Plant response rating, Wheat: 0 to 100 scale where 0 is no effect and 100 is complete control; for Wheat plant response rating: 0 to 100 scale
Outline: as §1

corn = experiment: Test A pre-/postemergence greenhouse test; format: in vivo, Zea mays; conditions: for Plant response rating, Corn: 0 to 100 scale where 0 is no effect and 100 is complete control; for Corn plant response rating: 0 to 100 scale
Outline: as §1

lambsquarters = experiment: Test C pre-/postemergence test; format: in vivo, Chenopodium album; conditions: for Plant response rating, Lambsquarters: 31 g ai/ha, scale 0 to 100 (0 no effect, 100 complete control)
Outline: as §2

rice = experiment: Test C flooded paddy test; format: in vivo, Oryza sativa; conditions: Flood
Outline: (§3)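 Pots were flooded to 3 cm above the soil surface at treatment, compound applied directly to the paddy water, and that depth held throughout. Plants were kept in a greenhouse for 13 to 15 days, then visually rated against untreated controls.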

umbrella sedge = experiment: Test C flooded paddy test; format: in vivo, Cyperus difformis; conditions: Flood
Outline: as §3

[4] = Postemergence, 500 g ai/ha, 0 is no effect, 100 is complete control
[5] = Preemergence, 125 g ai/ha, 0 no effect, 100 complete control
[6] = Preemergence, 500 g ai/ha, 0 no effect, 100 complete control
[7] = 62 g ai/ha, Preemergence, scale 0 to 100
[8] = 125 g ai/ha, preemergence, scale 0 (no effect) to 100 (complete control)
[9] = Preemergence, 31 g ai/ha, scale 0 to 100 (0 no effect, 100 complete control)
[10] = preemergence, 250 g ai/ha, scale 0 (no effect) to 100 (complete control)
[11] = 62 g ai/ha, Preemergence, scale 0 to 100 (0 no effect, 100 complete control)
[12] = Preemergence, scale 0 to 100 (0 no effect, 100 complete control)
[13] = 31 g ai/ha, scale 0 to 100 (0 no effect, 100 complete control)
[14] = 62 g ai/ha, scale 0 to 100 (0 no effect, 100 complete control)
[15] = 125 g ai/ha, scale 0 to 100, 0 no effect, 100 complete control, 13 to 15 days
[16] = 250 g ai/ha, scale 0 to 100, 0 no effect, 100 complete control, 13 to 15 days

CC(C)c1cc[n+]([O-])c([S+]([O-])Cc2c(C(F)(F)F)nn(C)c2OC(F)F)c1 (stereo not shown) [Compound 109]
0: Plant response rating, Rice (rice; [13]) | Plant response rating, Rice (rice; [14]) | Plant response rating, Rice (rice; [15]) | Plant response rating, Sedge, Umbrella (umbrella sedge; [13]) | Plant response rating, Sedge, Umbrella (umbrella sedge; [14])
65: Wheat plant response rating (wheat [2]; [8])
20: Plant response rating, Nightshade (eastern black nightshade; [9]) | Plant response rating, Rice (rice; [16])
55: Sunflower plant response rating [1, 8]
100: Barnyardgrass plant response rating (barnyardgrass; [6]) | Foxtail, Giant plant response rating (giant foxtail; [6]) | Pigweed plant response rating (redroot pigweed; [5]) | Pigweed plant response rating (redroot pigweed; [6]) | Morningglory plant response rating (morningglory; [6]) | Goosegrass plant response rating (Goosegrass; [7]) | Goosegrass plant response rating (Goosegrass; [8]) | Plant response rating, Goosegrass (Goosegrass; Preemergence) | Goosegrass plant response rating (Goosegrass; [10]) | Surinam Grass plant response rating (Surinam grass; [8]) | Surinam Grass plant response rating (Surinam grass; [10]) | Nightshade plant response rating (eastern black nightshade; [10]) | Wheat plant response rating (wheat [2]; [10]) | Pigweed plant response rating (pigweed; [7]) | Pigweed plant response rating (pigweed; [8]) | Plant response rating, Pigweed (pigweed; Preemergence) | Pigweed plant response rating (pigweed; [10]) | Crabgrass, Large plant response rating (crabgrass; [7]) | Crabgrass, Large plant response rating (crabgrass; [8]) | Crabgrass, Large plant response rating (crabgrass; [10]) | Bermudagrass plant response rating (bermudagrass; [11]) | Bermudagrass plant response rating (bermudagrass; [8]) | Bermudagrass plant response rating (bermudagrass; [10]) | Wheat plant response rating (wheat [3]; [6]) | Lambsquarters plant response rating (lambsquarters; [7]) | Lambsquarters plant response rating (lambsquarters; [8]) | Plant response rating, Lambsquarters (lambsquarters; Preemergence) | Lambsquarters plant response rating (lambsquarters; [10])
80: Plant response rating, Barnyardgrass (barnyardgrass; Postemergence, 125 g ai/ha) | Plant response rating, Foxtail, Giant (giant foxtail; Postemergence, 125 g ai/ha) | Nightshade plant response rating (eastern black nightshade; [7]) | Plant response rating, Crabgrass, Large (crabgrass; Preemergence) | Corn plant response rating (corn; [4])
70: Barnyardgrass plant response rating (barnyardgrass; [5]) | Wheat plant response rating (wheat [3]; [4])
75: Sunflower plant response rating [1, 10] | Plant response rating, Sedge, Umbrella (umbrella sedge; [16])
50: Sunflower plant response rating [1, 7] | Plant response rating, Sunflower [1, 9] | Plant response rating, Surinam Grass (Surinam grass; Preemergence) | Wheat plant response rating (wheat [2]; [7]) | Corn plant response rating (corn; [5]) | Plant response rating, Sedge, Umbrella (umbrella sedge; [15])
60: Plant response rating, Pigweed (redroot pigweed; Postemergence, 125 g ai/ha) | Plant response rating, Morningglory (morningglory; Postemergence, 125 g ai/ha) | Morningglory plant response rating (morningglory; [5]) | Plant response rating, Wheat (wheat [3]; Postemergence, 125 g ai/ha) | Wheat plant response rating (wheat [3]; [5]) | Plant response rating, Corn (corn; Postemergence, 125 g ai/ha)
90: Barnyardgrass plant response rating (barnyardgrass; [4]) | Foxtail, Giant plant response rating (giant foxtail; [4]) | Foxtail, Giant plant response rating (giant foxtail; [5]) | Pigweed plant response rating (redroot pigweed; [4]) | Morningglory plant response rating (morningglory; [4]) | Corn plant response rating (corn; [6])
95: Surinam Grass plant response rating (Surinam grass; [7]) | Nightshade plant response rating (eastern black nightshade; [8]) | Plant response rating, Bermudagrass (bermudagrass; [12])
10: Plant response rating, Wheat (wheat [2]; Preemergence)

Cn1nc(C(F)(F)F)c(C[S+]([O-])c2ccc(Cl)c[n+]2[O-])c1OCC(F)F (stereo not shown) [Compound 85]
50: Sunflower plant response rating [1, 8] | Wheat plant response rating (wheat [2]; [7]) | Plant response rating, Wheat (wheat [2]; Preemergence) | Plant response rating, Rice (rice; [16])
95: Surinam Grass plant response rating (Surinam grass; [7]) | Plant response rating, Sedge, Umbrella (umbrella sedge; [16])
85: Plant response rating, Surinam Grass (Surinam grass; Preemergence) | Nightshade plant response rating (eastern black nightshade; [7]) | Crabgrass, Large plant response rating (crabgrass; [7])
100: Plant response rating, Barnyardgrass (barnyardgrass; Preemergence, 500 g ai/ha) | Foxtail, Giant plant response rating (giant foxtail; [5]) | Plant response rating, Foxtail, Giant (giant foxtail; Preemergence, 500 g ai/ha) | Plant response rating, Morningglory (morningglory; Preemergence, 500 g ai/ha) | Goosegrass plant response rating (Goosegrass; [7]) | Goosegrass plant response rating (Goosegrass; [8]) | Plant response rating, Goosegrass (Goosegrass; Preemergence) | Goosegrass plant response rating (Goosegrass; [10]) | Surinam Grass plant response rating (Surinam grass; [8]) | Surinam Grass plant response rating (Surinam grass; [10]) | Nightshade plant response rating (eastern black nightshade; [8]) | Nightshade plant response rating (eastern black nightshade; [10]) | Wheat plant response rating (wheat [2]; [10]) | Pigweed plant response rating (pigweed; [7]) | Pigweed plant response rating (pigweed; [8]) | Plant response rating, Pigweed (pigweed; Preemergence) | Pigweed plant response rating (pigweed; [10]) | Crabgrass, Large plant response rating (crabgrass; [10]) | Bermudagrass plant response rating (bermudagrass; [11]) | Bermudagrass plant response rating (bermudagrass; [8]) | Bermudagrass plant response rating (bermudagrass; [10]) | Lambsquarters plant response rating (lambsquarters; [7]) | Lambsquarters plant response rating (lambsquarters; [8]) | Plant response rating, Lambsquarters (lambsquarters; Preemergence) | Lambsquarters plant response rating (lambsquarters; [10])
70: Plant response rating, Barnyardgrass (barnyardgrass; Postemergence, 125 g ai/ha) | Barnyardgrass plant response rating (barnyardgrass; [5]) | Pigweed plant response rating (redroot pigweed; [5]) | Plant response rating, Morningglory (morningglory; Postemergence, 125 g ai/ha) | Wheat plant response rating (wheat [2]; [8]) | Wheat plant response rating (wheat [3]; [4]) | Wheat plant response rating (wheat [3]; [5])
45: Plant response rating, Sedge, Umbrella (umbrella sedge; [14])
60: Plant response rating, Pigweed (redroot pigweed; Postemergence, 125 g ai/ha) | Morningglory plant response rating (morningglory; [5]) | Plant response rating, Wheat (wheat [3]; Postemergence, 125 g ai/ha) | Corn plant response rating (corn; [4]) | Plant response rating, Sedge, Umbrella (umbrella sedge; [15])
0: Plant response rating, Corn (corn; Postemergence, 125 g ai/ha) | Corn plant response rating (corn; [5]) | Plant response rating, Rice (rice; [13]) | Plant response rating, Rice (rice; [14]) | Plant response rating, Sedge, Umbrella (umbrella sedge; [13])
30: Sunflower plant response rating [1, 7] | Plant response rating, Rice (rice; [15])
80: Sunflower plant response rating [1, 10] | Plant response rating, Crabgrass, Large (crabgrass; Preemergence) | Plant response rating, Corn (corn; Preemergence, 500 g ai/ha)
90: Barnyardgrass plant response rating (barnyardgrass; [4]) | Plant response rating, Foxtail, Giant (giant foxtail; Postemergence, 125 g ai/ha) | Foxtail, Giant plant response rating (giant foxtail; [4]) | Pigweed plant response rating (redroot pigweed; [4]) | Plant response rating, Pigweed (redroot pigweed; Preemergence, 500 g ai/ha) | Morningglory plant response rating (morningglory; [4]) | Plant response rating, Bermudagrass (bermudagrass; [12]) | Wheat plant response rating (wheat [3]; [6])
